Results published in publication PMC4765731 (Anticancer research, 2015).
Like-named read-outs stand apart in the source and are kept apart here.

Key:
[1] = system: human lung (A549) cancer cell line; assay: Cell viability, crystal violet dye binding assay, A549; type: cell-based
A549 cells [2] = assay: Mitochondrial membrane potential; type: cell-based, human; details: rhodamine-123
A549 cells [3] = assay: ROS production, DCFDA dye; type: cell-based, human; details: 30 min
[4] = read-out: CC50 (cytotoxic concentration), A549, A549, 48 h exposure, crystal violet, mean ± SD
[5] = Homo sapiens, A549, 48 h, read-out: CC50 (cytotoxic concentration), A549, A549, 48 h exposure, crystal violet, mean ± SD

CC(=O)Oc1ccc2cc(-c3ccc(S(C)(=O)=O)cc3)c(=O)oc2c1OC(C)=O [Compound 7, 8-(acetyloxy)-3-(4-methanesulfonylphenyl)-2-oxo-2H-chromen-7-yl acetate]
fold decrease in potency compared to docetaxel (CC50, A549) ([1]; A549, 48 h, 7 vs docetaxel): 2.5 fold | CC50 [1, 4]: 24.2 ± 0.7 µM | MMP fluorescence intensity in comparison to untreated control (100%) (A549 cells [2]; A549, 10 μM): 96.4% | MMP fluorescence intensity in comparison to untreated control (100%) (A549 cells [2]; A549, 25 μM): 94.8% | MMP fluorescence intensity in comparison to untreated control (100%) (A549 cells [2]; A549, 50 μM): 93.4% | MMP fluorescence intensity in comparison to untreated control (100%) (A549 cells [2]; A549, 75 μM): 92.9% | MMP fluorescence intensity in comparison to untreated control (100%) (A549 cells [2]; A549, 100 μM): 81.7% | ROS fluorescence intensity in comparison to untreated control (100%) (A549 cells [3]; A549, 10 μM): 107.1% | ROS fluorescence intensity in comparison to untreated control (100%) (A549 cells [3]; A549, 25 μM): 129.0% | ROS fluorescence intensity in comparison to untreated control (100%) (A549 cells [3]; A549, 50 μM): 136.6% | ROS fluorescence intensity in comparison to untreated control (100%) (A549 cells [3]; A549, 75 μM): 146.0% | ROS fluorescence intensity in comparison to untreated control (100%) (A549 cells [3]; A549, 100 μM): 231.2%

Cc1c(-c2ccc(S(C)(=O)=O)cc2)c(=O)oc2ccccc12 [Compound 11, 3-(4-methanesulfonylphenyl)-4-methyl-2H-chromen-2-one]
CC50 [1, 5]: > 100 µM

CS(=O)(=O)c1ccc(-c2cc3ccccc3oc2=O)cc1 [Compound 9, 3-(4-methanesulfonylphenyl)-2H-chromen-2-one]
CC50 [1, 5]: > 100 µM

CC(=O)Oc1ccc(-c2c(C)c3ccccc3oc2=O)cc1 [Compound 10, 4-(4-methyl-2-oxo-2H-chromen-3-yl)phenyl acetate]
CC50 [1, 5]: > 100 µM

CC(=O)Oc1ccc(-c2cc3ccc(OC(C)=O)c(OC(C)=O)c3oc2=O)cc1 [Compound 6, 8-(acetyloxy)-3-[4-(acetyloxy)phenyl]-2-oxo-2H-chromen-7-yl acetate]
CC50 [1, 5]: 75.2 µM | CC50 [1, 4]: 75.9 ± 0.65 µM

CC(=O)O[C@@]12CO[C@@H]1C[C@H](O)[C@@]1(C)C(=O)[C@H](O)C3=C(C)[C@@H](OC(=O)[C@H](O)[C@@H](NC(=O)OC(C)(C)C)c4ccccc4)C[C@@](O)([C@@H](OC(=O)c4ccccc4)[C@H]21)C3(C)C [Docetaxel, reference compound]
CC50 [1, 5]: 9.47 µM | CC50 [1, 4]: 9.4 ± 0.07 µM
